Laboratory results from patent publication US20060154990A1, “Use of MEK inhibitors in treating abnormal cell growth” (AGOURON PHARMACEUTICALS, INC., priority 2004, published 2006).
Values joined by “and” are separate entries in the source; they are usually repeats but may differ in a detail not shown here. Equal entries are not always repeated. Marks after values point to notes of the source that are not given here.

Key:
[1] = tested on: ERK phosphorylation in tumor cells; assay: ERK phosphorylation in tumor cells grown in culture with 10% serum; assay type: cell-based; details: read-out: IC50, reducing ERK phosphorylation
[2] = tested on: Colo-205 human colon xenograft; assay: Antitumor activity against human colon xenograft Colo-205
Experimental: A study was also carried out to explore the potential of an intermittent dosing strategy.

[3] = Plasma concentrations associated with antitumor efficacy in mice; assay type: in vivo; details: mouse, oral, C26 and ZR-75-1 tumor models in mice
[4] = Metabolites of [14C] Compound 1 in cryopreserved hepatocytes; assay type: in vitro ADME, dog; details: [C-14] Compound 1 10 μM, 180 mins
Experimental: (§1) Incubations were performed in hepatocytes for 3 hours and liver microsomes for 1.5 hours and were stopped with the addition of methanol. HPLC, in conjuction with ionspray 3D iontrap mass spectrometry, and simultaneous radioactive monitoring were used to detect and identify the resulting metabolites.
(§2) Metabolite identification of radiolabeled Compound 1 was performed after incubation with rat, dog, monkey and human cryopreserved hepatocytes and liver microsomes. […] Besides glucuronidation, metabolites derived from other clearance pathways are also observed. For instance, M 15 (acid cleavage product) accounts for 11% of the total radioactivity in the human chromatogram.

[5] = as above; assay type: in vitro ADME, rat; details: [C-14] Compound 1 10 μM, 180 mins
Experimental: as §1, §2

[6] = Metabolites of [14C] Compound 1 in liver microsomes; assay type: in vitro ADME, dog; details: [C-14] Compound 1 10 μM, 90 mins
Experimental: as §1
This acid cleavage product is further metabolized to form hydroxylated (M 11, 16% in rat) and hydroxylated, defluorinated products (M 17, 19% in rat).

[7] = tested on: ERK phosphorylation in MDCK cells; assay: cells; details: Canis lupus familiaris, 1 h, read-out: Cellular IC50
pERK in tumor biopsies = assay: Immunohistochemical analysis of pERK in paired tumor biopsies; details: for pERK Post-Treatment: H-score
Description: The phosphorylation status of ERK can be assessed through antibody-based detection methods, utilizing phosphorylation site-specific antibodies. […] The biopsy tissues were paraffin-embedded following standard tissue processing. The antibody used for detection of pERK was the mouse monoclonal anti-MAP kinase (activated) antibody, manufactured by Sigma-Aldrich Co. (catalog number: M8159). This antibody is reacts specifically with the dually phosphorylated form of MAPK (both the ERK-1 and ERK-2 forms). Tissue sections prepared from the paraffin blocks were pretreated with Heat-induced Epitope Retrieval conditions (3 minutes at 120° C.) prior to the detection procedure. […] Staining intensity was grouped in categories from 0 to 3+, with 0 being little or no staining, and 3 being the most intense staining. […] For each biopsy specimen, 2 sections were analyzed and the average of these was taken for the pERK H-score. In addition to H-scores, the total % of positive cells was also recorded.

[8] = Colo-205, D19, 22, 25, 28, 31, 34, 37, 40, 43, 46, 18.8 mg/kg
[9] = Colo-205, D19, 22, 25, 28, 31, 34, 37, 40, 43, 46, 37.5 mg/kg
[10] = Colo-205, D19, 22, 25, 28, 31, 34, 37, 40, 43, 46, 75 mg/kg
[11] = Colo-205, D19, 22, 25, 28, 31, 34, 37, 40, 43, 46, 150 mg/kg
[12] = Colo-205, D19, 26, 33, 40, 47, 37.5 mg/kg
[13] = Colo-205, D19, 26, 33, 40, 47, 75 mg/kg
[14] = Colo-205, D19, 26, 33, 40, 47, 150 mg/kg
[15] = Colo-205, D19, 26, 33, 40, 47, 300 mg/kg (toxic)
[16] = Colo-205, D19-23, 26-30, 33-37, 40-44, 3.1 mg/kg
[17] = Colo-205, D19-23, 26-30, 33-37, 40-44, 6.3 mg/kg
[18] = Colo-205, D19-23, 26-30, 33-37, 40-44, 12.5 mg/kg
[19] = Colo-205, D19-23, 26-30, 33-37, 40-44, 25 mg/kg
[20] = Colo-205 colon, oral 25 mg/kg once a day for 14 days
[21] = 1 mg BID, melanoma, individual patients
[22] = 1 mg QD, breast, individual patient
[23] = 1 mg QD, melanoma, individual patients
[24] = 2 mg BID, colon, individual patient
[25] = 2 mg BID, lung, individual patient
[26] = 2 mg BID, melanoma, individual patients
[27] = 4 mg BID, lung, individual patient
[28] = 4 mg BID, melanoma, individual patient
[29] = 8 mg BID, breast, individual patient
[30] = 15 mg BID, breast, individual patient
[31] = 15 mg BID, melanoma, individual patient
[32] = 20 mg BID continuous, melanoma, individual patients
[33] = 20 mg BID, melanoma, individual patient
[34] = 30 mg BID, colon, individual patient
[35] = 30 mg BID, melanoma, individual patients

## O=C(NOC[C@H](O)CO)c1ccc(F)c(F)c1Nc1ccc(I)cc1F [Compound 1, N-[(R)-2,3-dihydroxy-propoxy]-3,4-difluoro-2-(2-fluoro-4-iodo-phenylamino)-benzamide]
[1]
  IC50: 0.59 nM
[2]; [8]
  CR (complete response): 0/6
  Net Log10 kill: 0.1
  Nonspecific Deaths: 0/6
  PR (partial response): 0/6
  T − C: 29.5 days
  Tumor Free: 0/6
[2]; [9]
  CR (complete response): 0/6
  Net Log10 kill: 0.6
  Nonspecific Deaths: 0/6
  PR (partial response): 0/6
  T − C: 37.7 days
  Tumor Free: 0/6
[2]; [10]
  CR (complete response): 1/6
  Net Log10 kill: 0.8
  Nonspecific Deaths: 0/6
  PR (partial response): 2/6
  T − C: 41.5 days
  Tumor Free: 0/6
[2]; [11]
  CR (complete response): 2/5
  Net Log10 kill: 0.7
  Nonspecific Deaths: 1/6^h
  PR (partial response): 3/5
  T − C: 39.9 days
  Tumor Free: 0/5
[2]; [12]
  CR (complete response): 0/6
  Net Log10 kill: −0.8
  Nonspecific Deaths: 0/6
  PR (partial response): 0/6
  T − C: 13.1 days
  Tumor Free: 0/6
[2]; [13]
  CR (complete response): 0/6
  Net Log10 kill: −0.6
  Nonspecific Deaths: 0/6
  PR (partial response): 0/6
  T − C: 17.0 days
  Tumor Free: 0/6
[2]; [14]
  CR (complete response): 1/6
  Net Log10 kill: 0.4
  Nonspecific Deaths: 0/6
  PR (partial response): 1/6
  T − C: 35.4 days
  Tumor Free: 0/6
[2]; Colo-205, D19, 26, 33, 40, 47, 300 mg/kg
  Net Log10 kill: Toxic
[2]; [15]
  CR (complete response): 2/3
  Nonspecific Deaths: 3/6^i Toxic
  PR (partial response): 1/3 Toxic
  T − C: 60.3 Toxic days
  Tumor Free: 1/3 Toxic
[2]; [16]
  CR (complete response): 0/6
  Net Log10 kill: 0.7
  Nonspecific Deaths: 0/6
  PR (partial response): 2/6
  T − C: 37.8 days
  Tumor Free: 0/6
[2]; [17]
  CR (complete response): 1/6
  Net Log10 kill: 1.1
  Nonspecific Deaths: 0/6
  PR (partial response): 4/6
  T − C: 45.1 days
  Tumor Free: 0/6
[2]; [18]
  CR (complete response): 1/6
  Net Log10 kill: 1.1
  Nonspecific Deaths: 0/6
  PR (partial response): 4/6
  T − C: 45.9 days
  Tumor Free: 0/6
[2]; [19]
  CR (complete response): 6/6
  Net Log10 kill: 1.8
  Nonspecific Deaths: 0/6
  PR (partial response): 0/6
  T − C: 59.3 days
  Tumor Free: 2/6
[2]; Colo-205, D19-46, 3.1 mg/kg
  CR (complete response): 0/6
  Net Log10 kill: 1.0
  Nonspecific Deaths: 0/6
  PR (partial response): 5/6
  T − C: 45.5 days
  Tumor Free: 0/6
[2]; Colo-205, D19-46, 6.3 mg/kg
  CR (complete response): 2/6
  Net Log10 kill: 1.1
  Nonspecific Deaths: 0/6
  PR (partial response): 4/6
  T − C: 46.7 days
  Tumor Free: 0/6
[2]; Colo-205, D19-46, 12.5 mg/kg
  CR (complete response): 6/6
  Net Log10 kill: 2.3
  Nonspecific Deaths: 0/6
  PR (partial response): 0/6
  T − C: 70.1 days
  Tumor Free: 0/6
[2]; Colo-205, D19-46, 25 mg/kg
  CR (complete response): 5/6
  Net Log10 kill: 2.0
  Nonspecific Deaths: 0/6
  PR (partial response): 1/6
  T − C: 63.9 days
  Tumor Free: 1/6
[2]; [20]
  CR (complete responder): 4/10
  PR (partial responder): 5/10
  T − C: 10.8 days
  Tumor Free: 3/10
[3]; read-out: lowest plasma AUC(0-24) associated with meaningful in vivo antitumor efficacy
  AUC(0-t): 1180 to 1880 ng·h/mL
[3]; read-out: lowest plasma Cmax associated with meaningful in vivo antitumor efficacy
  Cmax: 260 to 428 ng/mL
[4]
  % ROI Dog: 50.45%
[5]
  % ROI Rat: 72.06%
[6]
  % ROI Dog: 81.16%
[7]
  IC50: 0.31 nM
pERK in tumor biopsies; [21]
  pERK % Reduction from Baseline: −65% and 0%
  pERK Post-Treatment: 45 and 40
pERK in tumor biopsies; [22]
  pERK % Reduction from Baseline: −4%
  pERK Post-Treatment: 135
pERK in tumor biopsies; [23]
  pERK % Reduction from Baseline: −93% and 0%
  pERK Post-Treatment: 3 and 78
pERK in tumor biopsies; [24]
  pERK % Reduction from Baseline: 0%
  pERK Post-Treatment: 12
pERK in tumor biopsies; [25]
  pERK % Reduction from Baseline: −95%
  pERK Post-Treatment: 8
pERK in tumor biopsies; [26]
  pERK % Reduction from Baseline: −97% and −100%
  pERK Post-Treatment: 10 and 0
pERK in tumor biopsies; [27]
  pERK % Reduction from Baseline: −100%
  pERK Post-Treatment: 0
pERK in tumor biopsies; [28]
  pERK % Reduction from Baseline: −70%
  pERK Post-Treatment: 50
pERK in tumor biopsies; [29]
  pERK % Reduction from Baseline: −93%
  pERK Post-Treatment: 5
pERK in tumor biopsies; [30]
  pERK % Reduction from Baseline: −9%
  pERK Post-Treatment: 150
pERK in tumor biopsies; [31]
  pERK % Reduction from Baseline: −100%
  pERK Post-Treatment: 0
pERK in tumor biopsies; [32]
  pERK % Reduction from Baseline: −100% and −72% and −18%
  pERK Post-Treatment: 0 and 23 and 45
pERK in tumor biopsies; [33]
  pERK % Reduction from Baseline: −100%
  pERK Post-Treatment: 1
pERK in tumor biopsies; [34]
  pERK % Reduction from Baseline: −91%
  pERK Post-Treatment: 3
pERK in tumor biopsies; [35]
  pERK % Reduction from Baseline: −4% and −87%
  pERK Post-Treatment: 70 and 15
